Read-outs that look alike come from different tables or passages of the source. Bridge positions count the residues as written; N and C are the ends. Square brackets hold non-standard residues; d marks the D form. Peptide text beside a SMILES is read from it. * marks the point of attachment. Ileψ(thiazoline)Cys = CC[C@H](C)[C@H](N)C1=N[C@H](C(=O)*)CS1; dOrn = NCCC[C@@H](N)C(=O)O
Assays:
[1] = test system: rat skin; conditions: applied to rat skin; cited from earlier work
[2] = test system: rat caudate nucleus synaptosomal preparation; conditions: cited from earlier work
[3] = rats; cited from earlier work
[4] = test system: release of serotonin in the lateral hypothalamus; conditions: systemic administration, long lasting and dose dependent; cited from earlier work
[5] = test system: mice; conditions: cited from earlier work
[6] = test system: mice; assay: Alcohol preference in mice (acceptance and 14 day preference test); type: in vivo; conditions: d-phenylalanine 500 mg/kg/day 18 days, hydrocinnamic acid 25 micrograms icv
[7] = test system: Over-Eating; conditions: after six months, p < 0.001 between groups; cited from earlier work
[8] = test system: Over-Eating; conditions: 400 mcg, cited from earlier work
[9] = test system: obese women; conditions: cited from earlier work
[10] = test system: Over-Eating; conditions: cited from earlier work
[11] = test system: obese subjects genotyped for DRD2; assay: Chromium picolinate body composition as a function of DRD2 genotype; type: in vivo, human; conditions: subjects possessing a DRD2 A1 allele
Procedure: A Case Study: Chromium and Dopamine Genes. The inventors embarked on a study with chromium picolinate to test out the principles of nutrigenomics. In this study they genotyped obese subjects for the dopamine D2 receptors gene (DRD2). The subjects were assessed for scale weight and for percent body fat. The subjects were divided into matched placebo and chromium picolinate (CrP) groups. […] Moreover, the inventors propose for the first time that mixed effects now observed with CrP administration in terms of body composition, may be resolved by typing the patient via DRD2 genotyping prior to treatment with chromium salts.

[12] = test system: methadone patients; assay: Compliance with Trexan after rapid detoxification of methadone patients; type: in vivo, human; conditions: P<0.0001
From the text: It may also be interesting too further test this hypothesis with the sublingual combination of the partial opiate mu receptor agonist buprenorphrine.

[13] = oral oil-based paste, free access to food, three of six animals; cited from earlier work
[14] = test system: paw edema by carrageenin; conditions: topical 1% ointment, rats; cited from earlier work
[15] = with soya-lecithin, n-octanol-phosphate buffer; cited from earlier work
[16] = test system: SH-SY5Y human neuroblastoma cells; conditions: cited from earlier work
[17] = test system: brain dopamine and serotonin flux; conditions: intravenously, cited from earlier work
[18] = test system: rats; conditions: naloxone 0.1 mg/kg; species not stated; cited from earlier work
[19] = test system: nucleus accumbens enkephalins; conditions: administered into the nucleus accumbens; cited from earlier work
[20] = test system: patients with CRPS1; conditions: 3 of 5 patients; unchanged in the other 2; cited from earlier work
[21] = test system: intracranial self-stimulation; conditions: nucleus accumbens microinjections; cited from earlier work
[22] = test system: enkephalinase; conditions: cited from earlier work; for CSF EKA / plasma EKA: human sufferers
[23] = target: T1, CYP2D6 (Homo sapiens, UniProt P10635); conditions: extensive but not poor metabolizers of debrisoquine/sparteine; cited from earlier work
T1 construct: host or cells: patients on methadone (in vivo)
T1 sequence (P10635 whole entry): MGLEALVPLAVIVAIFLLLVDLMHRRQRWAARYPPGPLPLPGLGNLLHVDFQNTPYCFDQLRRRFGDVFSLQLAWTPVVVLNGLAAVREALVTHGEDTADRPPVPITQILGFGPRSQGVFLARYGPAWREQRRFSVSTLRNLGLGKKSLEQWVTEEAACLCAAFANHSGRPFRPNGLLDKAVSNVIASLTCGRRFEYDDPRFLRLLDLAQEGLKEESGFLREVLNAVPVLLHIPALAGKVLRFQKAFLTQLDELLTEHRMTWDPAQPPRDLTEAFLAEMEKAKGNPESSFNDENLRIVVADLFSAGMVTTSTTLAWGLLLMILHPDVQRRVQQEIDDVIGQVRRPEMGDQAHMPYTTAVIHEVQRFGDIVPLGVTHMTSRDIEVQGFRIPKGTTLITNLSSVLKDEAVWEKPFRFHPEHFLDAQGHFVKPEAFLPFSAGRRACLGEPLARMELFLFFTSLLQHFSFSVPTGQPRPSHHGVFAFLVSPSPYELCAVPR

[24] = test system: rats; conditions: morphine 5 mg/kg, D-phenylalanine 100 mg/kg; similar degree; cited from earlier work
[25] = test system: rats; conditions: injections in rats; cited from earlier work
[26] = test system: cats; conditions: peptide 0.35 mg/kg and D-phenylalanine 10 mg/kg; cited from earlier work
[27] = in vivo; cited from earlier work
[28] = 250 mg/kg, reversed by naloxone; cited from earlier work
[29] = test system: patients receiving opiates for chronic non-malignant pain; conditions: concurrent treatment, author's clinical experience; cited from earlier work
[30] = exercise training combined with CrP supplementation

CC12CCC(CC1)C(C)(C)O2 [1,8-cineole]
Plasma concentrations of KPF with addition of the enhancer to gel ointment [1]: no significant enhancing effect

CCn1cc(C(=O)O)c(=O)c2ccc(Cc3ccccc3)nc21 [Amfoelic acid]
release of dopamine formed from 14C-phenylalanine [2]: net release

CCCCCCCCC1CCCCC1=O (centres unmarked) [2-n-octylcyclohexanone]
percutaneous absorption of ketoprofen and indomethacin from gel ointments [3]: Pronounced effects

N[C@@H](Cc1c[nH]c2ccc(O)cc12)C(=O)O [5-HTP, 5-hydroxy-1-tryptophan]
5-HT in dialysates [4]: immediate increase

COc1ccc(C[C@H](N)C(=O)N[C@H]2[C@@H](O)[C@H](n3cnc4c(N(C)C)ncnc43)O[C@@H]2CO)cc1 [puromycin]
analgesia [5]: long-lasting, naloxone-reversible analgesia

CN1[C@@H]2CC[C@H]1C[C@@H](OC(c1ccccc1)c1ccccc1)C2 [Cogentin]
release of dopamine formed from 14C-phenylalanine [2]: increased

O=C(O)CCc1ccccc1 [hydrocinnamic acid]
alcohol preference [6]: significantly reduced

Chromium Picolinate
lean body mass [7]: an increase in
weight (p < 0.001) and body fat (p < 0.004) lost compared with placebo ([8]; 90 days): significantly more
reduction in body fat ([8]; p < 0.001): greater reduction
body composition ([8]; p < 0.004): improve body
weight change ([9]; CrP supplementation alone, 63 days): gain, while
insulin response to an oral glucose load [9, 30]: lowered
weight change [9, 30]: loss
body composition, body fat, nonfat mass ([10]; 00 mcg or 400 mcg, two double-blind placebo controlled studies): body composition improvement, loss of body fat, gain in nonfat mass
changes in Body Mass composition indicies compared with placebo ([10]; 200 and 400 mcg, 72 days): about significant
any parameter of weight and body fat change [11]: no significance

Cl.O=C1CC[C@@]2(O)[C@H]3Cc4ccc(O)c5c4[C@@]2(CCN3CC2CC2)[C@H]1O5 [Trexan®]
average number of days of compliance [12]: 37 days

CC(C(=O)O)c1cccc(C(=O)c2ccccc2)c1 (racemic) [Ketoprofen]
concentrations in plasma [13]: no detectable concentrations
paw edema by carrageenin [14]: markedly inhibited
partition into n-octanol [15]: improves

OC[C@H]1O[C@@H](OCCc2ccc(O)cc2)[C@H](O)[C@@H](O)[C@@H]1O [Salidroside]
H2O2-induced loss of mitochondrial membrane potential and elevation of intracellular calcium level ([16]; SH-SY5Y cells): dose-dependently restored
antioxidant property [16]: potent

CC(C)(C)C1CCC(=O)CC1 [4-tert-butylcyclohexanone]
percutaneous absorption of ketoprofen and indomethacin from gel ointments [3]: significantly lower

CC(C)[C@@H]1CC[C@@H](C)C[C@H]1O [l-menthol]
Plasma concentrations of KPF with addition of the enhancer to gel ointment [1]: no significant enhancing effect

CC(C)CC(N(C)C)C1(c2ccc(Cl)cc2)CCC1 (centres unmarked) [sibutramine]
serotonin and dopamine concentrations in the striatal and hypothalamic brain regions ([17]; higher doses): increased
serotonin and dopamine concentrations in dialysates ([17]; low doses): no effect

CC(C)(C)C1CCCCC1=O (centres unmarked) [2-tert-butylcyclohexanone]
percutaneous absorption of ketoprofen and indomethacin from gel ointments [3]: markedly enhanced

CC[C@H](C)[C@H](N)C1=N[C@H](C(=O)N[C@@H](CC(C)C)C(=O)N[C@H](CCC(=O)O)C(=O)N[C@H](C(=O)N[C@H]2CCCCNC(=O)[C@H](CC(N)=O)NC(=O)[C@@H](CC(=O)O)NC(=O)[C@H](Cc3cnc[nH]3)NC(=O)[C@@H](Cc3ccccc3)NC(=O)[C@H]([C@@H](C)CC)NC(=O)[C@@H](CCCN)NC2=O)[C@@H](C)CC)CS1 [bacitracin] ({Ileψ(thiazoline)Cys}-L[dE]IK[dOrn]I[dF]H[dD]N; lactam 4-C)
analgesia [5]: long-lasting, naloxone-reversible analgesia

C=CCN1CC[C@]23c4c5ccc(O)c4O[C@H]2C(=O)CC[C@@]3(O)[C@H]1C5 [Naloxone]
analgetic effect of peptide IKB-901 [18]: prevents
antinociception induced by intra-periaqueductal gray injection of morphine [19]: attenuated

O=[N+]([O-])O[C@H]1CO[C@H]2[C@@H]1OC[C@H]2O[N+](=O)[O-] [ISDN, isosorbide dinitrate]
Visual Analog Scale pain [20]: declined

C[C@H](NC(=O)[C@@H](CC(=O)NO)Cc1ccccc1)C(=O)O [kelatrophan]
intracranial self-stimulation [21]: reduced

COc1ccc2c(c1)c(CC(=O)O)c(C)n2C(=O)c1ccc(Cl)cc1 [indomethacin]
paw edema by carrageenin [14]: markedly inhibited

C[C@H](CS)C(=O)N1CCC[C@H]1C(=O)O [captopril]
CSF EKA [22]: decreased

Fc1ccc([C@@H]2CCNC[C@H]2COc2ccc3c(c2)OCO3)cc1 [paroxetine]
steady-state plasma concentrations of (R)-methadone [23]: increases

CN1CC[C@]23c4c5ccc(O)c4O[C@H]2[C@@H](O)C=C[C@H]3[C@H]1C5 [morphine]
pain reaction thresholds [24]: increase

O=C(O)CNC(=O)C(CS)Cc1ccccc1 (centres unmarked) [thiorphan]
CSF EKA [22]: decreased
plasma EKA [22]: decreased
potency as enkephalinase inhibitor among the three drugs ([22]; plasma and CSF): most potent

CC1CCCC(C)C1=O (centres unmarked) [2,6-dimethyl]
percutaneous absorption of ketoprofen and indomethacin from gel ointments [3]: significantly lower

O=C(O)Cc1ccccc1Nc1c(Cl)cccc1Cl [diclofenac sodium]
paw edema by carrageenin [14]: markedly inhibited

N[C@H](Cc1ccccc1)C(=O)O [D-phenylalanine]
CWS analgesia and morphine analgesia [25]: decrease CWS analgesia while increasing morphine analgesia
analgesia on coadministration with peptide IKB-901 [26]: enhances analgesia
plasma EKA [22]: decreased
pain reaction thresholds [24]: increase
alcohol preference [6]: significantly reduced
analgesia [27]: naloxone reversible analgesia
analgesia [28]: elicits analgesia
antinociception induced by intra-periaqueductal gray injection of morphine [19]: potentiated
analgesia [5]: long-lasting, naloxone-reversible analgesia

CC(N)Cc1ccccc1 (centres unmarked) [Amphetamine]
release of dopamine formed from 14C-phenylalanine [2]: increased

NC(Cc1ccccc1)C(=O)O (racemic) [DL-phenylalanine (DLPA), DL-phenylalanine]
pain relief in patients receiving opiates [29]: potentiate
